Reference: patent publication US11007181B2, “Cyclopamine analogs” (Infinity Pharmaceuticals, Inc., priority 2006, dated 2021)

Assays:
Hedgehog pathway = assay: Inhibition of the Hedgehog pathway in cell culture: C3H10T1/2 osteoblast differentiation, alkaline phosphatase assay; type: cell-based, Mouse; conditions: approximate EC50 for inhibition, C3H10T1/2 cells, sonic Hedgehog 250 ng/ml, alkaline phosphatase activity normalized to total protein
From the text: Hedgehog pathway specific cancer cell killing effects may be ascertained using the following assay. C3H10T1/2 cells differentiate into osteoblasts when contacted with the sonic hedgehog peptide (Shh-N). Upon differentiation; these osteoblasts produce high levels of alkaline phosphatase (AP) which can be measured in an enzymatic assay (Nakamura et al., 1997 BBRC 237: 465). Compounds that block the differentiation of C3H10T1/2 into osteoblasts (a Shh dependent event) can therefore be identified by a reduction in AP production (van der Horst et al., 2003 Bone 33: 899). The assay details are described below. The results approximate (EC50 for inhibition) of the differentiation assay is shown below in Table 1.
Mouse embryonic mesoderm fibroblasts C3H10T1/2 cells (obtained from ATCC) were cultured in Basal MEM Media (Gibco/Invitrogen) supplemented with 10% heat inactivated FBS (Hyclone), 50 units/ml penicillin and 50 ug/ml streptomycin (Gibco/Invitrogen) at 37 C with 5% CO2 in air atmosphere.
C3H10T1/2 cells were plated in 96 wells with a density of 8×10^3 cells/well. Cells were grown to confluence (72 hrs). After sonic Hedgehog (250 ng/ml), and/or compound treatment, the cells were lysed in 110 μL, of lysis buffer (50 mM Tris pH 7.4, 0.1% TritonX100), plates were sonicated and lysates spun through 0.2 μm PVDF plates (Corning). 40 μL, of lysates was assayed for AP activity in alkaline buffer solution (Sigma) containing 1 mg/ml p-Nitrophenyl Phosphate. After incubating for 30 min at 37° C., the plates were read on an Envision plate reader at 405 nm. Total protein was quantified with a BCA protein assay kit from Pierce according to manufacturer's instructions. AP activity was normalized against total protein.

BXPC-3 cells = assay: Pancreatic cancer model: BXPC-3 subcutaneous tumors in mice, tumor volume; type: in vivo, human; conditions: 40 mg/kg/day, 25 daily doses, p=0.0309
Method: (§1) The activity of Compound 42 was tested in a human pancreatic model: BXPC-3 cells were implanted subcutaneously into the flanks of the right legs of mice. On day 42 post-tumor implant, the mice were randomized into two groups to receive either Vehicle (30% HPBCD) or Compound 42. Compound 42 was dosed at 40 mg/kg/day. […] At the end of the study, the tumors were harvested 4 hours post the last dose to evaluate an on target response by q-RT-PCR analysis of the HH pathway genes.

human Gli-1 = assay: Pancreatic cancer model: q-RT-PCR of HH pathway genes in harvested tumors, human Gli-1; type: in vivo; conditions: BXPC-3 tumors harvested 4 hours post last dose, 40 mg/kg/day
Method: as §1

murine Gli-1 mRNA = assay: Pancreatic cancer model: q-RT-PCR of HH pathway genes in harvested tumors, murine Gli-1; type: in vivo; conditions: BXPC-3 tumors harvested 4 hours post last dose, 40 mg/kg/day, vs Vehicle group
Method: as §1

Gli-1 mRNA = assay: Medulloblastoma model: Ptch1/Hic1 subcutaneous allografts, Gli-1 mRNA expression; type: in vivo, mouse; conditions: single oral dose, subcutaneously implanted medulloblastoma tumors, 8 hours post dose
Method: (§2) The activity of Compound 42 was also evaluated in a transgenic mouse model of medulloblastoma. Mice that are heterozygous for loss of function mutations in the tumor suppressors Patched1 (Ptch1) and Hypermethylated in Cancer (Hic1) develop spontaneous medulloblastoma. […] When passaged as subcutaneous allografts, these tumors grow aggressively and are Hedgehog pathway-dependent. This model was employed to evaluate the efficacy of orally administered Compound, and to correlate activity with drug exposure in plasma and tumors.

medulloblastoma = assay: Medulloblastoma model: Ptch1/Hic1 subcutaneous allografts, tumor growth and survival; type: in vivo, mouse; conditions: daily (QD) PO administration
Method: as §2
The approximate effective daily oral dose for 50% inhibition of tumor growth (ED50) is 4 mg/kg.

LX22 cells = assay: Lung cancer model: LX22 primary SCLC xenograft in mice; type: in vivo, human
From the text: To test the activity of Compound 42 in a human SCLC tumor model, LX22 cells were implanted subcutaneously into the flank of the right leg. LX22 is primary xenograft model of SCLC derived from chemo-naive patients, which has been maintained by mouse to mouse passaging. This tumor responds to etoposide/carboplatin chemotherapy in way that closely resembles a clinical setting. LX22 regresses during chemotherapy treatment, goes through a period of remission, and then begins to recur. In the LX22 model, Compound single agent activity and its ability to modulate the chemoresistant recurrence was tested. On day 32 post tumor implant, mice were randomized into three dosing groups to receive Vehicle (30% HBPCD), Compound, or the chemotherapy combination of etoposide and carboplatin (E/P). […] Etoposide was administered i.v at 12 mg/kg on days 34, 35, 36, and 48, while Carboplatin was administered i.v. at 60 mg/kg on days 34, 41, and 48, post tumor implant. On day 50, the E/P treated mice were further randomized to receive either Vehicle (30% HPBCD) or Compound follow up treatment.

Oral multi-dose MTD = type: in vivo, mice

CC1=C2C[C@H]3[C@@H](CC=C4C[C@@H](O)CC[C@@]43C)[C@@H]2CC[C@@]2(C1)O[C@@H]1C[C@H](C)CN[C@H]1[C@H]2C [Compound 8]
EC50 (Hedgehog pathway): > 100 nM

CC1=C2C[C@H]3[C@@H](CC[C@@H]4CC(=O)CC[C@@]43C)[C@@H]2CC[C@@]2(C1)O[C@@H]1C[C@H](C)CN(C(C)C)[C@H]1[C@H]2C [Compound 10]
EC50 (Hedgehog pathway): > 100 nM

CC1=C2C[C@H]3[C@@H](CC[C@@H]4C[C@@H](OC(=O)CN)CC[C@@]43C)[C@@H]2CC[C@@]2(C1)O[C@@H]1C[C@H](C)CN[C@H]1[C@H]2C [Compound 40]
EC50 (Hedgehog pathway; Mus musculus, C3H 10T1/2): < 20 nM

CC1=C2C[C@H]3[C@@H](CC[C@@H]4C[C@H](NS(C)(=O)=O)CC[C@@]43C)[C@@H]2CC[C@@]2(C1)O[C@@H]1C[C@H](C)CN[C@H]1[C@H]2C [Compound 42]
reduction of tumor volume growth compared to vehicle control (BXPC-3 cells): 40%
human Gli-1 modulation (q-RT-PCR) (human Gli-1): no modulation
murine Gli-1 mRNA levels (q-RT-PCR) (murine Gli-1 mRNA): robust down-regulation
HH pathway modulation measured by Gli-1 mRNA expression (Gli-1 mRNA): dose-dependent down-regulation of the HH pathway
tumor growth (medulloblastoma): dose dependent inhibition of tumor growth, with frank tumor regression seen at higher doses
single agent activity, treated vs vehicle groups (LX22 cells; 40 mg/kg/day, 16 consecutive doses): no measurable difference between the treated and vehicle groups
tumor recurrence after etoposide/carboplatin (E/P) chemotherapy (LX22 cells; follow up treatment from day 50, 40 mg/kg/day oral, 35 consecutive doses, vs vehicle, p=0.0101): substantial delay in tumor recurrence
oral multi-dose MTD (Oral multi-dose MTD): 40 mg/kg/day
